Laboratory results published in patent publication US20080206198A1, “Compounds and methods for pharmico-gene therapy of epithelial sodium channel associated disorders” (priority 2003, published 2008).

Tests used:
[1] = tested on: polarized human airway epithelial cells; details: hypotonic EGTA solution alone; cited from earlier work
[2] = tested on: Balb/c mice; assay: Safety of anthracyclines in Balb/c mice; assay type: in vivo, mouse; details: intranasal, 10% HDE
Text: (§1) Animals were followed for seven days post dose.
Safety endpoints included morbidity and mortality, clinical observations, body weights, gross necropsy observations and histopathology. Transduction endpoints included luciferase and GFP analysis.

[3] = tested on: HeLa cells; assay: AAV2 FLAG-Luc transduction of HeLa cells (luciferase screen); assay type: cell-based, human
Text: A. To screen for agents that enhance rAAV transduction, any number of cells can be used. A range of concentrations of the agent to be tested can be determined based on, for instance desirable profiles of the agent, desirable toxicity profiles of the agent and/or concentration of the agents employed in vivo. The usefulness of the cell type chosen for the screen can be confirmed by testing compounds, e.g., proteasome inhibitors such as LLnL and ZLL which are known to increase rAAV transduction. For example, a AAV2 FLAG-Luc vector was employed to transduce HeLa, ferret fibroblasts, IB3 and Huh (liver) cells in the presence or absence of the proteasome inhibitor MG132. MG132 was confirmed to enhance AAV transduction in all cell types tested: HeLa cell transduction was enhanced about 500-fold at 80 μM, and 200-fold at 40 μM, MG132; ferret fibroblast cell transduction was enhanced about 200-fold at 20 μM, and 17-fold at 4 μM, MG132; IB3-1 cell transduction was enhanced about 30 to 70-fold at 20 to 80 μM MG132; and Huh-7 cell transduction was enhanced about 15-fold at 20 to 80 μM MG132. There was no difference in rAAV transduction efficiency in HeLa cells when either DMSO or ETOH was used as a vehicle for MG132. B. HeLa cells were selected to screen for additional agents that enhance rAAV transduction, although any cell strain or line; or primary cells, may be employed. […] The range of concentrations of the agents to be tested were selected based on solubility profiles, toxicity profiles and/or concentrations previously employed in vivo.
HeLa cells were infected for 2 hours with an MOI of 100 rAAV in the presence of agents, e.g., ritonavir (Norvir) (1, 10 and 100 μM), cyclosporin A (2.5, 25 and 250 μg/ml), epoxomicin (1, 10 and 50 μM), alcacinomycin A (5, 50 or 500 μM), chymostatin (1, 10 and 100 μM), bestatin (1, 10 and 100 μM), doxorubicin (adriamycin) (0.1, 1 and 10 μM), camptothecin (camptosar) (1, 10 and 100 μM), eicosapentanoic acid (1, 10 and 100 μM), tannic acid (2, 20, 200 and 2000 μM), simvastatin, prodrug (2, 20 and 200 μM), cisplatin (0.2, 2 and 20 μg/mL), and chloroquine (4, 40 and 400 μM). Forty-eight hours after infection, cells were harvested for analysis. rAAV transduction was measured by removing the media from the cell cultures, adding 100 μL reporter lysis buffer (RLB) and freezing. The supernatant was thawed and transferred to microfuge tubes, freeze thawed an additional 2 times, clarified by centrifugation for 10 minutes and then analyzed for reporter gene expression on the lumometer. Protein was determined by Bradford analysis and results were expressed as relative light units per mg protein (RLU/mg).
Based on results with doxorubicin, a small number of FDA approved anthracyclines were tested for their relative in vitro and in vivo activities on AAV transduction. HeLa cells were infected with 100 ppc AAV2FLAG-Luc for 2 hours in the presence of different anthracyclines, e.g., doxorubicin, daunarubicin (Cerubidine), epirubicin (Ellence™), and idarubicin (Idamycin®), and cells harvested 48 hours later. The anthracyclines were pharmaceutical grade, and prepared according to the manufacturer's instructions. Prior to use, the agents were diluted in sterile water to an equal mass, e.g., 0.6 μg/mL, 3 μg/mL and 6 μg/mL. For example, 3 μg/mL idamycin increased luciferase expression by over 5000-fold while doxorubin increased luciferase expression by 58-fold. Generally, the potency was as follows: idarubicin>daunarubicin>epirubicin>doxorubicin.

[4] = tested on: mouse lung; assay: Intranasal AAV2-Luc with anthracyclines in Balb/c mice (lung luciferase); assay type: in vivo; details: 10% HDE intranasal, day 7
Text: as §1
The dose of modulator was based on the Human Dose Equivalent (HDE) and is summarized below in Table 4. For intranasal dose administration, the dose was held constant at 10% of the HDE.
On the day of sacrifice, the left lung was clamped off at the level of the extrapulmonary bronchi, removed and frozen on dry ice. The left lung was homogenized and processed for luciferase expression using Promega's luciferase assay system (Madison, Wis.). Luminescence was measured using the Berthold AutoLumat LB953 instrument. Samples were normalized for total protein using Pierce's Coomassie Plus Protein Assay Reagent (Rockford, Ill.).

Row | Compound | increase of AAV transduction from the apical surface [1] [fold] | mortality and clinical observations ([2]; 7 days) | body weight ([2]; over the week) | increase in luciferase expression ([3]; 3 μg/mL, 100 ppc AAV2FLAG-Luc, harvest 48 hours) | order of potency among anthracyclines ([3]; 0.6, 3 and 6 μg/mL) | Fold Increase in luciferase expression ([4]; both sexes) | luciferase expression, Average ([4]; both sexes) | Fold Increase in luciferase expression ([4]; female) | luciferase expression, Average ([4]; female) | Fold Increase in luciferase expression ([4]; male) | luciferase expression, Average ([4]; male)
1 | O=C(O)CN(CCOCCOCCN(CC(=O)O)CC(=O)O)CC(=O)O [EGTA] | 7 to 10 |  |  |  |  |  |  |  |  |  | 
2 | CC(=O)[C@]1(O)Cc2c(O)c3c(c(O)c2[C@@H](O[C@H]2C[C@H](N)[C@H](O)[C@H](C)O2)C1)C(=O)c1ccccc1C3=O [Idamycin, idarubicin] |  | early mortality of some animals, ruffled hair coats and sick mice | lost considerable body weight | over 5000 fold | idarubicin>daunarubicin>epirubicin>doxorubicin | 90 | 5.06E+05 | 57 | 2.02E+05 | 111 | 8.11E+05
